Key:
Format in all cases: in vivo
Echinochloa crus-galli = assay: Paddy herbicidal activity test; conditions: irrigated paddy pot, treated at 3.5 leaf stage of Echinochloa crus-galli, 30 days
Description: (§1) Rice paddy soil was filled into a 1/10000 are pot followed by the addition of suitable amounts of water and chemical fertilizer, kneading, seeding with Echinochloa crus-galli, Monochoria vaginalis and Scirpus juncoides and maintaining in an irrigated state at a water depth of 3 cm. Wettable powder of Target Compound (I) shown in Table 1 prepared in compliance with the preparation examples were diluted with a suitable amount of water, rice plants in the 2.0 leaf stage were transplanted during 3.5 leaf stage of Echinochloa crus-galli, and treated by dropping in chemical in the prescribed amount per are using a pipette. After treating for 30 days in a glass greenhouse at an average atmospheric temperature of 30° C., the herbicidal efficacy thereof was investigated. Evaluation of herbicidal efficacy was carried out by comparing growth inhibition rate (%) with an untreated group, while evaluation of phytotoxicity was carried out by comparing growth inhibition rate (%) with the state of a complete eradication group, and were evaluated at 11 levels indicated below. [table]

Monochoria vaginalis = assay: Paddy herbicidal activity test; conditions: irrigated paddy pot, 30 days
Description: as §1

Scirpus juncoides = assay: Paddy herbicidal activity test; conditions: irrigated paddy pot, 30 days
Description: as §1

Rice plants = assay: Paddy herbicidal activity test, phytotoxicity to transplanted rice; conditions: rice transplanted at 2.0 leaf stage, 30 days
Description: as §1

Amaranthus retroflexus [1] = assay: Farming soil treatment test; conditions: soil surface spray prior to weed growth, 30 days
Description: (§2) Evaluation of herbicidal efficacy was carried out by comparing growth inhibition rate (%) with an untreated group, while evaluation of phytotoxicity was carried out by comparing growth inhibition rate (%) with the state of a complete eradication group, and were evaluated at 11 levels indicated below. [table] Field soil was filled into a 1/6000 are pot followed by seeding with Digitaria ciliaris, Chenopodium album and Amaranthus retroflexus and covering with soil. Wettable powder of compounds of formula (I) shown in Table 1 prepared in compliance with the preparation examples were diluted with water to the prescribed amount of chemical and uniformly sprayed onto each soil surface layer using 10 liters of sprayed water per are prior to weed growth following seeding. After treating for 30 days in a glass greenhouse at an average atmospheric temperature of 30° C., the herbicidal efficacy thereof was investigated. Evaluation of herbicidal efficacy was carried out in the same manner as the above-mentioned Test Example 1.

Chenopodium album [2] = assay: Farming soil treatment test; conditions: soil surface spray prior to weed growth, 30 days
Description: as §2

Digitaria ciliaris [3] = assay: Farming soil treatment test; conditions: soil surface spray prior to weed growth, 30 days
Description: as §2

Amaranthus retroflexus [4] = assay: Weed foliar treatment test; conditions: foliar spray, 3 weeks
Description: (§3) Evaluation of herbicidal efficacy was carried out by comparing growth inhibition rate (%) with an untreated group, while evaluation of phytotoxicity was carried out by comparing growth inhibition rate (%) with the state of a complete eradication group, and were evaluated at 11 levels indicated below. [table] Soil was filled into a 1/6000 are pot followed by seeding with Digitaria ciliaris, Chenopodium album and Amaranthus retroflexus, covering with soil, and cultivating in a glass greenhouse at an average atmospheric temperature of 25° C. Wettable powder of Target Compound (I) shown in Table 1 prepared in compliance with the preparation examples were diluted with water to the prescribed amount of chemical and uniformly sprayed onto the weeds using 15 liters of sprayed water per are when Digitaria ciliaris had grown to the 1.0 to 2.0 leaf stage. After treating for 3 weeks in a glass greenhouse at an average atmospheric temperature of 25° C., the herbicidal efficacy thereof was investigated, Evaluation of herbicidal efficacy was carried out in the same manner as the above-mentioned Test Example 1.

Chenopodium album [5] = assay: Weed foliar treatment test; conditions: foliar spray, 3 weeks
Description: as §3

Digitaria ciliaris [6] = assay: Weed foliar treatment test; conditions: foliar spray at 1.0 to 2.0 leaf stage of Digitaria ciliaris, 3 weeks
Description: as §3

Compound | herbicidal efficacy (growth inhibition rate level) Echinochloa crus-galli (Echinochloa crus-galli; 1g a.i./10a) | herbicidal efficacy (growth inhibition rate level) Echinochloa crus-galli (Echinochloa crus-galli; 5g a.i./10a) | herbicidal efficacy (growth inhibition rate level) Monochoria vaginalis (Monochoria vaginalis; 1g a.i./10a) | herbicidal efficacy (growth inhibition rate level) Monochoria vaginalis (Monochoria vaginalis; 5g a.i./10a) | herbicidal efficacy (growth inhibition rate level) Scirpus juncoides (Scirpus juncoides; 1g a.i./10a) | herbicidal efficacy (growth inhibition rate level) Scirpus juncoides (Scirpus juncoides; 5g a.i./10a) | phytotoxicity (growth inhibition rate level) Rice plants (Rice plants; 1g a.i./10a) | phytotoxicity (growth inhibition rate level) Rice plants (Rice plants; 5g a.i./10a) | herbicidal efficacy (growth inhibition rate level) Amaranthus retroflexus (Amaranthus retroflexus [1]; 5g a.i./10a) | herbicidal efficacy (growth inhibition rate level) Amaranthus retroflexus (Amaranthus retroflexus [1]; 10g a.i./10a) | herbicidal efficacy (growth inhibition rate level) Chenopodium album (Chenopodium album [2]; 5g a.i./10a) | herbicidal efficacy (growth inhibition rate level) Chenopodium album (Chenopodium album [2]; 10g a.i./10a) | herbicidal efficacy (growth inhibition rate level) Digitaria ciliaris (Digitaria ciliaris [3]; 5g a.i./10a) | herbicidal efficacy (growth inhibition rate level) Digitaria ciliaris (Digitaria ciliaris [3]; 10g a.i./10a) | herbicidal efficacy (growth inhibition rate level) Amaranthus retroflexus (Amaranthus retroflexus [4]; 5g a.i./10a) | herbicidal efficacy (growth inhibition rate level) Amaranthus retroflexus (Amaranthus retroflexus [4]; 10g a.i./10a) | herbicidal efficacy (growth inhibition rate level) Chenopodium album (Chenopodium album [5]; 5g a.i./10a) | herbicidal efficacy (growth inhibition rate level) Chenopodium album (Chenopodium album [5]; 10g a.i./10a) | herbicidal efficacy (growth inhibition rate level) Digitaria ciliaris (Digitaria ciliaris [6]; 5g a.i./10a) | herbicidal efficacy (growth inhibition rate level) Digitaria ciliaris (Digitaria ciliaris [6]; 10g a.i./10a)
N#Cc1cnn(-c2nn3c(c2Br)CCCC3)c1N(CC1CC1)C(=O)C(F)(F)F [Compound 148] | 8 (8: 80% to less than 90%) | 10 (10: 100%) | 7 (7: 70% to less than 80%) | 9 (9: 90% to less than 100%) | 7 (7: 70% to less than 80%) | 9 (9: 90% to less than 100%) | 0 (0 (exponent): 0% to less than 10% (growth inhibition rate)) | 0 (0 (exponent): 0% to less than 10% (growth inhibition rate)) | 10 (10: 100%) | 10 (10: 100%) | 10 (10: 100%) | 10 (10: 100%) | 10 (10: 100%) | 10 (10: 100%) | 10 (10: 100%) | 10 (10: 100%) | 10 (10: 100%) | 10 (10: 100%) | 10 (10: 100%) | 10 (10: 100%)
N#Cc1cnn(-c2nn3c(c2Cl)CCCC3)c1NCC1CC1(F)F (stereo not drawn) [Compound 185] | 10 (10: 100%) | 10 (10: 100%) | 9 (9: 90% to less than 100%) | 9 (9: 90% to less than 100%) | 10 (10: 100%) | 10 (10: 100%) | 0 (0 (exponent): 0% to less than 10% (growth inhibition rate)) | 1 (1: 10% to less than 20%) | 10 (10: 100%) | 10 (10: 100%) | 10 (10: 100%) | 10 (10: 100%) | 10 (10: 100%) | 10 (10: 100%) | 10 (10: 100%) | 10 (10: 100%) | 10 (10: 100%) | 10 (10: 100%) | 10 (10: 100%) | 10 (10: 100%)
N#Cc1cnn(-c2nn3c(c2Cl)CCCC3)c1N(CC1CC1(F)F)C(=O)C(F)(F)F (stereo not drawn) [Compound 186] | 10 (10: 100%) | 10 (10: 100%) | 9 (9: 90% to less than 100%) | 9 (9: 90% to less than 100%) | 9 (9: 90% to less than 100%) | 10 (10: 100%) | 0 (0 (exponent): 0% to less than 10% (growth inhibition rate)) | 1 (1: 10% to less than 20%) | 10 (10: 100%) | 10 (10: 100%) | 10 (10: 100%) | 10 (10: 100%) | 10 (10: 100%) | 10 (10: 100%) | 10 (10: 100%) | 10 (10: 100%) | 10 (10: 100%) | 10 (10: 100%) | 10 (10: 100%) | 10 (10: 100%)

Reference: patent US9556183B2, “Substituted pyrazolylpyrazole derivative and use of same as herbicide” (KYOYU AGRI CO., LTD., priority 2013, dated 2017)
